These results are taken from paper doi:10.1101/2025.10.09.681351v1 (biorxiv, 2025).

Test [1] addresses EPAS1 (mouse recombinant EPAS1; HIF-2α) (Mus musculus, UniProt P97481). As to the kind of experiment: isothermal titration calorimetry. In kind it is binding. On the technique in general: In ITC the heat of successive injections is recorded.
A further test deals with recombinant human EPAS1 (Homo sapiens, UniProt Q99814). Description: isothermal titration calorimetry. The test is classed as binding.
Sequence of recombinant human EPAS1 (Q99814 whole entry): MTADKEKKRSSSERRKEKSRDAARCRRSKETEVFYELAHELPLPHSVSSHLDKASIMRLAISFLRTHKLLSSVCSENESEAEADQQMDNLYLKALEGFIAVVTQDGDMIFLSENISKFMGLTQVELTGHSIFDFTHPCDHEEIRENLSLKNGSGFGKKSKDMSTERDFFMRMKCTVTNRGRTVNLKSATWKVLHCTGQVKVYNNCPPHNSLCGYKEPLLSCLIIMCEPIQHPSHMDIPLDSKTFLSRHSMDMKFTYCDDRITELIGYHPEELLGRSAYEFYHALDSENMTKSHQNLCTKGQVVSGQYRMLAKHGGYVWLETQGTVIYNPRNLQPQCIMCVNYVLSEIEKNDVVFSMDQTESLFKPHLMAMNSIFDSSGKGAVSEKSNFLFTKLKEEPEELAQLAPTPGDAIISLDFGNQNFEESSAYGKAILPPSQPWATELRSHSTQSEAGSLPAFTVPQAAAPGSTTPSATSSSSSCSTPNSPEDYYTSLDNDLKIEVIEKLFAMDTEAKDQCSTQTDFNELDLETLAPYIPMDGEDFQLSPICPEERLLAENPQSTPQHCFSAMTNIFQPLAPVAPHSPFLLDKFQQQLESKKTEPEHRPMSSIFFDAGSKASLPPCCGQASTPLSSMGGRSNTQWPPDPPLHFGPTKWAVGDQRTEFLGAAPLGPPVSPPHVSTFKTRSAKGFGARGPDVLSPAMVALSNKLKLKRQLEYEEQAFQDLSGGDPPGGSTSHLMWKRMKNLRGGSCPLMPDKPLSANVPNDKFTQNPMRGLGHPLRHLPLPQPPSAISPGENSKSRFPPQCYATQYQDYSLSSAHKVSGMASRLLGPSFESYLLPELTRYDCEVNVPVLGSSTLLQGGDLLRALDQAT

Sequence of EPAS1 (mouse recombinant EPAS1; HIF-2α) (P97481 whole entry): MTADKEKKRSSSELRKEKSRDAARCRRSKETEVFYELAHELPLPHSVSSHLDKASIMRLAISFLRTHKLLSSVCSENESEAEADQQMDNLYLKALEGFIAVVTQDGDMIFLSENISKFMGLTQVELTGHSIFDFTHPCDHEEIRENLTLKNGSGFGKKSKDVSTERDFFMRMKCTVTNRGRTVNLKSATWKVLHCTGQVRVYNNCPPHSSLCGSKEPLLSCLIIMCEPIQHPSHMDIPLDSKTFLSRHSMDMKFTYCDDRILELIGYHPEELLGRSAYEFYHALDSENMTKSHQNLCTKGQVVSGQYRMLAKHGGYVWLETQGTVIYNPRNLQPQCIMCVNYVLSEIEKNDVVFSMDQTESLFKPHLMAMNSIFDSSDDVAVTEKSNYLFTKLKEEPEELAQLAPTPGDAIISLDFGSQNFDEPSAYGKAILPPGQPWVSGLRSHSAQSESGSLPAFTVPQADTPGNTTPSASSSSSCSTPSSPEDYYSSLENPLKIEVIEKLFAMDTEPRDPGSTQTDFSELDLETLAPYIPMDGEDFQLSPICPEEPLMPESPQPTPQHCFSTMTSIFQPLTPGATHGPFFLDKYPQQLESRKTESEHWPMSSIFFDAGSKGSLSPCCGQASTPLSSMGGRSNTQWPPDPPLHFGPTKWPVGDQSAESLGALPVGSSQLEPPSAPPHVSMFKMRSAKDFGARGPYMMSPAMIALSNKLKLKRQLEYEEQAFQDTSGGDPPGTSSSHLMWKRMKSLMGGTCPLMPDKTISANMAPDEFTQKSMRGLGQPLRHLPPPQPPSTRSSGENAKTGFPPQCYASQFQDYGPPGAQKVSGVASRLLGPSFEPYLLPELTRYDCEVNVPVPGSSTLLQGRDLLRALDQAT

`CCCCCCCCC/C=C\C(=O)O` [BDSF]: the Kd in test [1] is 4.3 µM; on recombinant human EPAS1, 5.3 µM.

One may read the Kd as the free concentration of one partner at which half of the binding sites on the other are occupied at equilibrium, for simple one-to-one binding.
